Reference: patent publication US12404251B2, “Small molecule compound” (Cerepeut, Inc., priority 2017, dated 2025)
“Also recorded” adds a separate entry of the source.

Tests used:
Jurkat = assay: CellTiter-Glo cell viability, Jurkat T cell leukemia model; format: cell-based, human; conditions: 72 hour incubation
Method: (§1) Cell seeding (Day “−1”): The cell density of eight adherent cell lines was adjusted according to supplier-recommended information. 50 μL cells were seeded in four 384-well-plates, and 50 μL DPBS was added to the edge wells.
(§2) Compound preparation (Day 0): All test compounds were dissolved in DMSO and stored in a nitrogen cabinet. The stock concentration of the test compounds was 120 mM. The stock concentration of the reference compounds was 10 mM. The reference compound paclitaxel was diluted with DMSO to provide a 400 μM stock solution.
(§3) Cell treatment with test compounds (Day 0): Test compounds (125 nL in DMSO) were added to the wells using an ECHO liquid handling system (Labcyte Inc.) and serially diluted by three fold, providing 10 doses in each series with a maximum concentration of 300 μM. […]
(§4) Assay (Day 3): After the cells were treated with the compounds for 72 hours, the plates were equilibrated at room temperature for approximately 30 minutes. 25 μL of CellTiter Glo reagent was added to each well, and the luminescence in each well was measured after 10 min using an ENVISION fluorescence plate reader (PerkinElmer). […]
(§5) To evaluate the anti-tumor activity of CPT-2008, the growth inhibitory effect of the compound was measured in various human cancer cell lines after 72 hour incubation. […] The data recorded for the paclitaxel reference compound were consistent with the historical published data.

human GBM cells [1] = assay: Self-renewal of GBM cells (neurosphere formation); format: cell-based; conditions: 20 uM CPT-2008 vs DMSO vehicle (FIG. 18)
Method: Control: cells treated with DMSO vehicle; CPT-2008: cells treated with 20 uM CPT-2008.
(§6) CPT-2008 affects mitochondrial function. […] Given the important role of mitochondria in maintaining cancer cells, especially cancer stem cells, the effects of CPT-2008 on a number of mitochondrial parameters in human glioblastoma (GBM) cells were texted next. First, the effects of CPT-2008 on mitochondrial ROS level were studied. For this purpose, the mito-SOX dye was used. Mito-SOX can specifically monitor mitochondrial ROS levels. […] The effect of CPT-2008 on mitochondrial membrane potential, a key factor that determines mitochondrial health and activity, was also measured using the TRM dye. […] The effect of CPT-2008 on mitochondrial calcium homeostasis was also measured using the Rhod-2AM dye, which specifically monitors mitochondrial calcium levels. […] The effect of CPT-2008 on mitochondrial morphology was also measured using immunostaining of the mitochondrial outer membrane marker Tom20. […] Finally, the effect of CPT-2008 on the self-renewal of GBM cells was tested.

in vitro [2] = format: in vitro ADME; conditions: human
human GBM cells [3] = assay: Mitochondrial ROS, Mito-SOX staining; format: cell-based; conditions: vs DMSO control (FIG. 15)
Text: GBM cells treated with DMSO vehicle (control) or with CPT-2008 in DMSO were stained with Mito-SOX to probe mitochondrial ROS level.
as §6

NCI-H82 = assay: CellTiter-Glo cell viability, NCI-H82 SCLC model; format: cell-based, human; conditions: NCI-H82, 72 hour incubation
Method: as §1, §2, §3, §4, §5

paclitaxel-treated rats = assay: Paclitaxel-induced neuropathic pain model, paw withdrawal test; format: in vivo, rat; conditions: 100 mg/kg intraperitoneal; 1.5 h, 3 h, 4.5 h post dosing; vs vehicle (FIG. 20)
Method: An estimated 30-40% of cancer patients undergoing chemotherapy experience peripheral neuropathic pain, a neuroinflammation-induced debilitating side effect that causes patients to stop their treatment early or take lower doses. The effects of CPT-2008 in reducing neuropathic pain were studied in paclitaxel-treated rats. After paclitaxel treatment for 8 days, Sprague-Dawley rats were housed for additional days. On day 22, 16 rats were randomly separated into two groups. One group was dosed with vehicle, and the other group was dosed via intraperitoneal injection with CPT-2008 at 100 mg/kg. Pain (mechanical allodynia) test subjects was assessed using a paw withdrawal test (PWT) as described by Xie (“Activation of notch signaling mediates the induction and maintenance of mechanical allodynia in a rat model of neuropathic pain.” Molecular Medicine Reports 12: 639-644, 2015). Rats were measured for paw withdrawal threshold post dosing of test compound at 1.5 h, 3 h, and 4.5 h.

in vitro [4] = format: in vitro ADME; conditions: human; remark: listed apart in the source
T98G = assay: CellTiter-Glo cell viability, T98G glioblastoma model; format: cell-based, human; conditions: 72 hour incubation
Method: as §1, §2, §3, §4, §5

Molt-4 = assay: CellTiter-Glo cell viability, Molt-4 T-ALL model; format: cell-based, human; conditions: Molt-4, 72 hour incubation
Method: as §1, §2, §3, §4, §5

A2780 = assay: CellTiter-Glo cell viability, A2780 ovarian cancer model; format: cell-based, human; conditions: A2780, 72 hour incubation
Method: as §1, §2, §3, §4, §5

human GBM cells [5] = assay: Mitochondrial calcium, Rhod-2AM staining; format: cell-based; conditions: vs DMSO control (FIG. 14)
Text: GBM cells treated with DMSO vehicle (control) or with CPT-2008 in DMSO were stained with Rhod-2AM to probe mitochondrial calcium (mito-Ca^2+) level. CPT-2008 elevated mito-Ca^2+.
as §6

A549 = assay: CellTiter-Glo cell viability, A549 NSCLC model; format: cell-based, human; conditions: A549, 72 hour incubation
Method: as §1, §2, §3, §4, §5

NCI-H1299 = assay: CellTiter-Glo cell viability, NCI-H1299 NSCLC model; format: cell-based, human; conditions: NCI-H1299, 72 hour incubation
Method: as §1, §2, §3, §4, §5

MCF7 = assay: CellTiter-Glo cell viability, MCF7 breast cancer model; format: cell-based, human; conditions: MCF7, 72 hour incubation
Method: as §1, §2, §3, §4, §5

[6] = Pharmacokinetics in Sprague-Dawley rats (plasma and brain); format: in vivo, rat; conditions: for bioavailability: Sprague-Dawley, rat, in vivo
Method: Sprague-Dawley rats were administered CPT-2008 by IV or PO. Blood samples (about 1 mL) were collected via cardiac puncture after euthanasia by carbon dioxide inhalation at 5 min, 15 min, 30 min, 1 h, 2 h, 4 h, 8 h, 24 h of post dose. Blood samples were placed into tubes containing heparin sodium and centrifuged at 3500 rpm for 10 minutes at 4° C. to separate plasma from the samples. Following centrifugation, the resulting plasma was transferred to labeled tubes and stored frozen at −80° C. pending bioanalysis. The brain each studied animal at each time point was collected after the animal was euthanized by carbon dioxide inhalation. The whole tissue was harvested, excised and then placed into one tube per tissue per animal. The tissue samples were placed on dry ice and then stored at −80° C. until bioanalysis.

NCI-H446 = assay: CellTiter-Glo cell viability, NCI-H446 SCLC model; format: cell-based, human; conditions: NCI-H446, 72 hour incubation
Method: as §1, §2, §3, §4, §5

Sprague-Dawley rats = assay: Rat middle cerebral artery occlusion (MCAO) stroke model; format: in vivo; conditions: rat MCAO 1.5 h, 24 h reperfusion; 25-100 mg/kg intraperitoneally 0 h and 8 h after reperfusion; TTC staining; compared with edaravone 6 mg/kg
Method: Edaravone (3-methyl-1-phenyl-2-pyrazolin-5-one) is a reactive oxygen species (ROS) scavenger approved for the treatment of stroke and ALS in Japan, and for the treatment of ALS in the United States. The efficacy of CPT-2008 for preventing brain damage in a rat middle cerebral artery occlusion (MCOA) model was compared with the efficacy of edaravone. Sprague-Dawley rats were dosed with vehicle, edaravone (6 mg/kg), or CPT-2008 (25-100 mg/kg), and the level of infarcted brain tissue was assessed. In this study rats underwent middle cerebral artery occlusion (MCAO) for 1.5 h followed by 24 h reperfusion. CPT-2008 was given intraperitoneally 0 h and 8 h after reperfusion, and behavior deficits and brain insult were assessed by Longa score scale and TTC staining, respectively. […] It is believed that the improved benefit of CPT-2008 is due, in part, to prevention ROS formation in brain tissue mitochondria.

HCT116 = assay: CellTiter-Glo cell viability, HCT116 colorectal cancer model; format: cell-based, human; conditions: HCT116, 72 hour incubation
Method: as §1, §2, §3, §4, §5

human GBM cells [7] = assay: Mitochondrial membrane potential, TMRM staining; format: cell-based; conditions: vs DMSO vehicle (FIG. 17)
Text: GBM cells treated with DMSO vehicle or with CPT-2008 in DMSO were stained with TMRM to probe mitochondrial membrane potential.
as §6

GBM cells = assay: Mitochondrial morphology, TOM-20 immunostaining; format: cell-based, human; conditions: vs DMSO control (FIG. 16)
Text: GBM cells treated with DMSO (control) or CPT-2008 in DMSO were immunostained for TOM-20 to reveal mitochondrial morphology.
as §6

U118MG = assay: CellTiter-Glo cell viability, U118MG glioblastoma model; format: cell-based, human; conditions: 72 hour incubation
Method: as §1, §2, §3, §4, §5

Which IC50 (Jurkat) does the source give for `COc1cc(-n2c(S)nc3cc(OC)c(Cl)cc3c2=O)c(Cl)cc1Cl` [CPT-2008, 6-chloro-3-(2,4-dichloro-5-methoxyphenyl)-2-mercapto-7-methoxyquinazolin-4(3H)-one] here?
The IC50 was “nM range”.

And the “self-renewal of GBM cells (ability to form neurospheres)” value (human GBM cells [1])?
Its value is “significantly inhibited; also recorded: lost such ability”.

And the stability in microsomes (in vitro [2])?
Its stability in microsomes is “excellent stability”.

And the half-life (in vitro [2]; microsomes)?
The half-life was roughly 3.6 h.

What about the “mitochondrial ROS level” value (human GBM cells [3]) of the same molecule?
The value was “significant increase; also recorded: significantly elevated”.

What about the IC50 (NCI-H82) of the same molecule?
The IC50 was “nM range”.

What about the “paw withdrawal threshold (mechanical allodynia)” value (paclitaxel-treated rats) of the same molecule?
The value was “increased threshold values”.

And the stability in hepatocytes (in vitro [4])?
Its stability in hepatocytes is “excellent stability”.

What about the half-life (in vitro [4]; hepatocytes, half-life) of the same molecule?
The half-life was roughly 94.3 h.

And the IC50 (T98G)?
Its IC50 is “low μM range”.

And the IC50 (Molt-4)?
Its IC50 is “low μM range”.

And the IC50 (A2780)?
The IC50 was “nM range”.

What about the “mitochondrial calcium (mito-Ca2+) level” value (human GBM cells [5]) of the same molecule?
Its value is “caused an increase; also recorded: elevated”.

What about the IC50 (A549) of the same molecule?
Its IC50 is “low μM range”.

What about the IC50 (NCI-H1299) of the same molecule?
Its IC50 is “low μM range”.

What about the IC50 (MCF7) of the same molecule?
The IC50 was “low μM range”.

And the “crossing of the blood brain barrier” value ([6]; Sprague-Dawley rats, IV or PO (FIG. 21A, 21B))?
The value was “efficiently cross the blood brain barrier”.

What about the bioavailability ([6]; brain bioavailability) of the same molecule?
Its bioavailability is 39%.

And the bioavailability ([6]; plasma bioavailability)?
Its bioavailability is 94.5%.

What about the IC50 (NCI-H446) of the same molecule?
The IC50 was “nM range”.

What about the “level of infarcted (dead) brain tissue” value (Sprague-Dawley rats) of the same molecule?
The value was “reduced levels of dead brain tissue”.

And the IC50 (HCT116)?
Its IC50 is “low μM range”.

And the mitochondrial membrane potential (human GBM cells [7])?
The mitochondrial membrane potential was “dramatic reduction; also recorded: dramatically reduced”.

What about the mitochondrial morphology (GBM cells) of the same molecule?
The mitochondrial morphology was “dramatic fragmentation of mitochondria; also recorded: induced mitochondrial size reduction”.

What about the IC50 (U118MG) of the same molecule?
Its IC50 is “low μM range”.
